Data taken from patent publication US9994551B2, “Pyridazine derivatives as RORc modulators” (Genentech, Inc., priority 2015, dated 2018).

target: T1, RORc ligand binding domain (Homo sapiens, UniProt P51449); experiment: In vitro RORc ligand binding assay (25-[3H]hydroxycholesterol displacement, filter binding)
T1 construct: host or cells: E. coli
T1 sequence (P51449 269-508 limits assumed): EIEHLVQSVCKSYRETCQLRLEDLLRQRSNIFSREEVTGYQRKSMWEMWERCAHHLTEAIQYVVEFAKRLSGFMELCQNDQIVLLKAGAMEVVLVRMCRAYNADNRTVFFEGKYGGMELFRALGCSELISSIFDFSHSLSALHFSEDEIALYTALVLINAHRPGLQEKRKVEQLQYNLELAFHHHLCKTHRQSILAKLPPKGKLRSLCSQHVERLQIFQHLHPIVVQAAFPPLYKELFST

| Structure (SMILES) | IC50 |
| --- | --- |
| CC1(C)[C@H]2CC[C@]1(Oc1cc[nH]c(=O)c1)c1nnc(-c3c(F)cccc3F)cc12 [Compound 34, 4-(((5S,8R)-3-(2,6-difluorophenyl)-9,9-dimethyl-5,6,7,8-tetrahydro-5,8-methanocinnolin-8-yl)oxy)pyridin-2(1H)-one] | 202 nM |
| CC[C@@H](O[C@@]12CC[C@@H](c3cc(-c4c(F)cccc4F)nnc31)C2(C)C)c1nc(COC)no1 [Compound 41, 5-((R)-1-(((5S,8R)-3-(2,6-difluorophenyl)-9,9-dimethyl-5,6,7,8-tetrahydro-5,8-methanocinnolin-8-yl)oxy)propyl)-3-(methoxymethyl)-1,2,4-oxadiazole] | 4 nM |
| CC1(C)[C@H]2CC[C@]1([C@@H]1CN(c3ncn[nH]3)CCO1)c1nnc(-c3c(F)cccc3F)cc12 [Compound 155, 2-[5-(2,6-difluorophenyl)-11,11-dimethyl-3,4-diazatricyclo[6.2.1.02,7]undeca-2,4,6-trien-1-yl]-4-(1H-1,2,4-triazol-5-yl)morpholine] | 60 nM |
| CC1(C)[C@H]2CC[C@]1(Oc1cccnn1)c1nnc(-c3c(F)cccc3F)cc12 [Compound 16, (5S,8R)-3-(2,6-difluorophenyl)-9,9-dimethyl-8-(pyridazin-3-yloxy)-5,6,7,8-tetrahydro-5,8-methanocinnoline] | 254 nM |
| CC[C@@H](O[C@@]12CC[C@@H](c3cc(-c4c(F)cccc4F)nnc31)C2(C)C)C(=O)NCc1n[nH]c(=O)[nH]1 [Compound 56, (R)-2-(((5S,8R)-3-(2,6-difluorophenyl)-9,9-dimethyl-5,6,7,8-tetrahydro-5,8-methanocinnolin-8-yl)oxy)-N-((5-oxo-4,5-dihydro-1H-1,2,4-triazol-3-yl)methyl)butanamide] | 95.2 nM |
| CC1(C)[C@H]2CC[C@]1([C@H]1CN(CC(F)F)CCO1)c1nnc(-c3c(F)cccc3F)cc12 [Compound 80, (S)-4-(2,2-difluoroethyl)-2-((5R,8R)-3-(2,6-difluorophenyl)-9,9-dimethyl-5,6,7,8-tetrahydro-5,8-methanocinnolin-8-yl)morpholine] | 674 nM |
| CC1(C)[C@H]2CC[C@]1([C@H]1CN(c3ccccn3)CCO1)c1nnc(-c3c(F)cccc3F)cc12 [Compound 82, (S)-2-((5R,8R)-3-(2,6-difluorophenyl)-9,9-dimethyl-5,6,7,8-tetrahydro-5,8-methanocinnolin-8-yl)-4-(pyridin-2-yl)morpholine] | 16.7 nM |
| CN1CCO[C@@H]([C@@]23CC[C@@H](c4cc(-c5c(F)cccc5F)nnc42)C3(C)C)C1 [Compound 71, (S)-2-((5R,8R)-3-(2,6-difluorophenyl)-9,9-dimethyl-5,6,7,8-tetrahydro-5,8-thanocinnolin-8-yl)-4-methylmorpholine] | 375 nM |
| CN1CCNC[C@H]1[C@@]12CC[C@@H](c3cc(-c4c(F)cccc4F)nnc31)C2(C)C [Compound 178, 5-(2,6-difluorophenyl)-11,11-dimethyl-1-(1-methylpiperazin-2-yl)-3,4-diazatricyclo[6.2.1.02,7]undeca-2,4,6-triene] | 13 nM |
| CC(C)(C)OC(=O)N1CCN[C@H]([C@@]23CC[C@@H](c4cc(-c5c(F)cccc5F)nnc42)C3(C)C)C1 [Compound 62, (R)-tert-butyl 3-((5R,8S)-3-(2,6-difluorophenyl)-9,9-dimethyl-5,6,7,8-tetrahydro-5,8-methanocinnolin-8-yl)piperazine-1-carboxylate] | 136 nM |
| Cc1cc(O[C@@]23CC[C@@H](c4cc(-c5c(F)cccc5F)nnc42)C3(C)C)ccn1 [Compound 25, (5S,8R)-3-(2,6-difluorophenyl)-9,9-dimethyl-8-((2-methylpyridin-4-yl)oxy)-5,6,7,8-tetrahydro-5,8-methanocinnoline] | 844 nM |
| CC1(C)[C@H]2CC[C@]1([C@@H]1CN(C(=O)C(O)CO)CCO1)c1nnc(-c3c(F)cccc3F)cc12 (stereo partly drawn) [Compound 78, 1-((R)-2-((5R,8R)-3-(2,6-difluorophenyl)-9,9-dimethyl-5,6,7,8-tetrahydro-5,8-methanocinnolin-8-yl)morpholino)-2,3-dihydroxypropan-1-one] | 213 nM |
| CC[C@@H](O[C@@]12CC[C@@H](c3cc(-c4c(F)cccc4F)nnc31)C2(C)C)C(=O)Nc1nnc(C)o1 [Compound 55, (R)-2-(((5S,8R)-3-(2,6-difluorophenyl)-9,9-dimethyl-5,6,7,8-tetrahydro-5,8-methanocinnolin-8-yl)oxy)-N-(5-methyl-1,3,4-oxadiazol-2-yl)butanamide] | 94.8 nM |
| CC1(C)[C@H]2CC[C@]1(c1cncc3nccn13)c1nnc(-c3c(F)cccc3F)cc12 [Compound 109, (5R,8S)-3-(2,6-difluorophenyl)-8-(imidazo[1,2-a]pyrazin-5-yl)-9,9-dimethyl-5,6,7,8-tetrahydro-5,8-methanocinnoline] | 175 nM |
| CC[C@@H](O[C@@]12CC[C@@H](c3cc(-c4c(F)cccc4F)nnc31)C2(C)C)C(=O)NC(CO)CO [Compound 53, (R)-2-(((5S,8R)-3-(2,6-difluorophenyl)-9,9-dimethyl-5,6,7,8-tetrahydro-5,8-methanocinnolin-8-yl)oxy)-N-(1,3-dihydroxypropan-2-yl)butanamide] | 116 nM |
| CC1(C)[C@H]2CC[C@]1([C@@H]1CN(c3nc(CO)co3)CCO1)c1nnc(-c3c(F)cccc3F)cc12 [Compound 130, [2-[2-[5-(2,6-difluorophenyl)-11,11-dimethyl-3,4-diazatricyclo[6.2.1.02,7]undeca-2,4,6-trien-1-yl]morpholin-4-yl]oxazol-4-yl]methanol] | 8.8 nM |
| CC[C@@H](O[C@@]12CC[C@@H](c3cc(-c4c(F)cccc4F)nnc31)C2(C)C)C(=O)NNC(C)=O [Compound 58, (R)-N′-acetyl-2-(((5S,8R)-3-(2,6-difluorophenyl)-9,9-dimethyl-5,6,7,8-tetrahydro-5,8-methanocinnolin-8-yl)oxy)butanehydrazide] | 105 nM |
| CC[C@@H](O[C@@]12CC[C@@H](c3cc(-c4c(F)cccc4F)nnc31)C2(C)C)C(N)=O [Compound 31, (R)-2-(((5S,8R)-3-(2,6-difluorophenyl)-9,9-dimethyl-5,6,7,8-tetrahydro-5,8-methanocinnolin-8-yl)oxy)butanamide] | 8.8 nM |

Other lines, results leading:

| IC50 | Structure (SMILES) |
| --- | --- |
| 6.1 nM | CC1(C)[C@H]2CC[C@]1([C@H]1CCCN(C(=O)NC3COC3)C1)c1nnc(-c3c(F)cccc3F)cc12 [Compound 157, 3-[5-(2,6-difluorophenyl)-11,11-dimethyl-3,4-diazatricyclo[6.2.1.02,7]undeca-2,4,6-trien-1-yl]-N-(oxetan-3-yl)piperidine-1-carboxamide] |
| 14 nM | CC1(C)[C@H]2CC[C@]1([C@H]1CCCN(C(=O)c3cnccn3)C1)c1nnc(-c3c(F)cccc3F)cc12 [Compound 132, [3-[5-(2,6-difluorophenyl)-11,11-dimethyl-3,4-diazatricyclo[6.2.1.02,7]undeca-2,4,6-trien-1-yl]-1-piperidyl]-pyrazin-2-yl-methanone] |
| 11 nM | CC1(C)[C@H]2CC[C@]1([C@H]1CCCN(C(=O)c3c[nH]c(=O)cn3)C1)c1nnc(-c3c(F)cccc3F)cc12 [Compound 121, 5-[3-[5-(2,6-difluorophenyl)-11,11-dimethyl-3,4-diazatricyclo[6.2.1.02,7]undeca-2,4,6-trien-1-yl]piperidine-1-carbonyl]-1H-pyrazin-2-one] |
| 33 nM | CC1(C)[C@H]2CC[C@]1([C@H]1CCCN(C(=O)c3ccno3)C1)c1nnc(-c3c(F)cccc3F)cc12 (stereo in doubt) [Compound 166, [3-[5-(2,6-difluorophenyl)-11,11-dimethyl-3,4-diazatricyclo[6.2.1.02,7]undeca-2,4,6-trien-1-yl]-1-piperidyl]-isoxazol-5-yl-methanone] |
| 308 nM | CC(=O)N1CCO[C@H]([C@@]23CC[C@@H](c4cc(-c5c(F)cccc5F)nnc42)C3(C)C)C1 [Compound 64, 1-((R)-2-((5R,8R)-3-(2,6-difluorophenyl)-9,9-dimethyl-5,6,7,8-tetrahydro-5,8-methanocinnolin-8-yl)morpholino)ethanone] |
| 29 nM | CC1(C)[C@H]2CC[C@]1([C@@H]1CN(C(N)=O)CCN1)c1nnc(-c3c(F)cccc3F)cc12 [Compound 184, 3-[5-(2,6-difluorophenyl)-11,11-dimethyl-3,4-diazatricyclo[6.2.1.02,7]undeca-2,4,6-trien-1-yl]piperazine-1-carboxamide] |
| 24 nM | CNC(=O)N1CCO[C@@H]([C@@]23CC[C@@H](c4cc(-c5c(F)cccc5F)nnc42)C3(C)C)C1 [Compound 74, (S)-2-((5R,8R)-3-(2,6-difluorophenyl)-9,9-dimethyl-5,6,7,8-tetrahydro-5,8-methanocinnolin-8-yl)-N-methylmorpholine-4-carboxamide] |
| 7.9 nM | CC(C)(O)CNC(=O)N1CCC[C@H]([C@@]23CC[C@@H](c4cc(-c5c(F)cccc5F)nnc42)C3(C)C)C1 [Compound 150, 3-[5-(2,6-difluorophenyl)-11,11-dimethyl-3,4-diazatricyclo[6.2.1.02,7]undeca-2,4,6-trien-1-yl]-N-(2-hydroxy-2-methyl-propyl)piperidine-1-carboxamide] |
| 8.3 nM | CC1(C)[C@H]2CC[C@]1([C@H]1CCCN(C(=O)c3cn[nH]c3)C1)c1nnc(-c3c(F)cccc3F)cc12 [Compound 167, [3-[5-(2,6-difluorophenyl)-11,11-dimethyl-3,4-diazatricyclo[6.2.1.02,7]undeca-2,4,6-trien-1-yl]-1-piperidyl]-(1H-pyrazol-4-yl)methanone] |
| 4.5 nM | CC1(C)C2CCC1(C1CCCN(C(=O)c3ncco3)C1)c1nnc(-c3c(F)cccc3F)cc12 (stereo not shown) [Compound 159, [3-[5-(2,6-difluorophenyl)-11,11-dimethyl-3,4-diazatricyclo[6.2.1.02,7]undeca-2,4,6-trien-1-yl]-1-piperidyl]-oxazol-2-yl-methanone] |
